The structures appear in SMILES notation. A value given as a limit tells only on which side of the number the result lay.

The test system of data set [1] is male Sprague-Dawley rats. The following applies: see WO2010/011316, Example 9; cited from earlier work.
The test system of data set [2] is peripheral blood lymphocyte (PBL) counts. Kind of data set: Phase 1 single dose study: peripheral blood lymphocyte counts. The class given is in vivo, human. On the procedure:
Compound 1 was administered as the L-arginine salt.

The test system of data set [3] is subjects. Kind of data set: Phase 1 single dose study: safety and tolerability. The method, then:
A phase 1 study with Compound 1 was conducted with single dosing at 0.1 mg, 0.35 mg, 1 mg, 3 mg, and 5 mg. Compound 1 was administered as the L-arginine salt.

With `O=C(O)C[C@H]1CCc2c1[nH]c1ccc(OCc3ccc(C4CCCC4)c(C(F)(F)F)c3)cc21` [Compound 1, (R)-2-(7-(4-cyclopentyl-3-(trifluoromethyl)benzyloxy)-1,2,3,4-tetrahydrocyclopenta[b]indol-3-yl)acetic acid], the bradycardia entry in data set [1] was “no or substantially no bradycardia”. The PBL counts reduced in data set [2] (single dose 3 mg) is listed as about 40%. In data set [2] (single dose 5 mg), this molecule displayed a PBL counts reduced of about 55%. For the same molecule, the “absolute number of peripheral blood B cells, T cells, NK cells, and all T cell subsets except TEM cells” value in data set [2] (single dose 3 and 5 mg) is recorded as “dose responsive decline”. Moreover, in data set [2] (single dosing), the “persistence of PBL nadir” value turned out to be 24 h, the “time after dosing by which total PBL counts were reduced” value fell in the range of 2 to 4 h and the “time of nadir of total PBL counts” value is at most 8 h. Besides, the “recovery of PBL counts to baseline” value in data set [2] (single dosing, after nadir period) was 4 days. For the same molecule, the “other safety issues (vital signs, ECGs, pulmonary function tests, ophthalmoscopy, clinical laboratory tests)” value in data set [3] (in vivo) is recorded as “no other clinically significant safety issues”. For the same molecule, the maximum tolerated dose in data set [3] (single dosing) is 3 mg. Further, the “deaths or serious adverse events” value in data set [3] (single dosing 0.1-5 mg) is given as “no deaths or serious adverse events”.

The values are drawn from patent publication US20220023258A1, “METHODS OF TREATING CONDITIONS RELATED TO THE S1P1 RECEPTOR” (Arena Pharmaceuticals, Inc., priority 2018, published 2022).
